Source: patent publication US6962931B2, “Self-emulsifying formulations of cholesteryl ester transfer protein inhibitors” (Pfizer Inc., priority 2001, dated 2005)

Tests used:
[1] = Microsolubility estimate by repeated addition of vehicle; assay type: physicochemical; details: thermodynamic from solid, read-out: Microsolubility
Method: (§1) For CETP inhibitors where quantities were limited, an estimate of solubility was obtained by addition of vehicle to a known quantity of the compound and mixing in an ultrasonicator bath for 90 minutes, followed by overnight equilibration at ambient temperature. Addition of vehicle was repeated until a solution was achieved.
as §1, with “limited or the samples were amorphous solids,” for “limited,”, “achieved. From the total volume of vehicle added to solubilize the CETP inhibitor compound, the solubility value, or so-called microsolubility, was calculated by the equation: Weight of sample (mgA)/vehicle volume (mL)=Microsolubility (mgA/mL)” for “achieved.”

[2] = Emulsion from oil solution plus equal volume of water: particle size and stability; assay type: physicochemical
Method: An emulsion was prepared by combining 1 volume of oil solution with an equal volume of de-ionized water. […] The emulsion is then stirred continuously to maintain homogeneity.
An emulsion was prepared by combining 1 volume of oil solution with an equal volume of de-ionized water. This mixture was stirred for 10 minutes and then vortex mixed for 2 minutes. […] It was stirred continuously to maintain homogeneity.
An emulsion was prepared by combining combining 1 volume of oil solution with an equal volume of de-ionized water. This mixture was stirred for 10 minutes and then vortex mixed for 2 minutes. […] It was stirred continuously to maintain homogeneity.

[3] = PK in rat, oils or preformed emulsions by oral gavage; set-up: species or system Sprague Dawley rats; details: Sprague-Dawley, in vivo
From the text: Emulsions prepared from olive oil/surfactant provided the best results.

[4] = Equilibrium solubility in excipients, vehicles and emulsion preconcentrates; assay type: physicochemical; details: equilibrium
Method: The solubility of CETP inhibitors in excipients and in formulations was determined by adding an excess of compound to the medium in question. The mixture was agitated by rotation over a period of days at ambient temperature until the concentration in solution had reached an equilibrium as judged by similar measurements for consecutive time points. Concentrations were measured by filtration of aliquots with a PTFE syringe filter and assay by HPLC as described in Example 11.
The solubility of crystalline CETP inhibitors in representative vehicles was determined by adding an excess of compound to the vehicle in question. The mixture was agitated by rotation over a period of days at ambient temperature until the concentration in solution had reached equilibrium as judged by similar measurements for consecutive time points. Concentrations were measured by filtration of aliquots with a PTFE syringe filter and assayed by HPLC.
The concentrations of CETP inhibitor in each vehicle were assayed at intervals by dilution of aliquots into acetonitrile and gradient HPLC analysis on a Water Symmetry C-8 column (3.9×150 mm, 5 micron) at 30° C. at a flow rate of 1 mL/min. […] The detection method was UV absorbance at 210 nm.

For CCOC(=O)N1c2ccc(C(F)(F)F)cc2[C@@H](N(Cc2cc(C(F)(F)F)cc(C(F)(F)F)c2)C(=O)OC)C[C@H]1CC [Compound A, [2R,4S] 4-[(3,5-bis-trifluoromethyl-benzyl)-methoxycarbonyl-amino]-2-ethyl-6-trifluoromethyl-3,4-dihydro-2H-quinoline-1-carboxylic acid ethyl ester], the Solubility ([1]; Capmul MCM, oil or lipid) was greater than 300 mg/mL, the Solubility ([1]; Cotton oil, oil or lipid) was less than 75 mg/mL and the Solubility ([1]; Crodamol GTCC, oil or lipid) was less than 75 mg/mL. The Solubility ([1]; Glycerin, organic solvent or mixture) was less than 75 mg/mL, the Solubility ([1]; Incromega TG2671, oil or lipid) was less than 75 mg/mL and the Solubility ([1]; Linoleic acid, oil or lipid) was less than 60 mg/mL. It also gave a Solubility ([1]; Miglyol 810, oil or lipid) of less than 100 mg/mL, a Solubility ([1]; Miglyol 812, oil or lipid) greater than 300 mg/mL and a Solubility ([1]; Olive oil, oil or lipid) greater than 300 mg/mL. It also gave a Solubility ([1]; Safflower oil, oil or lipid) greater than 300 mg/mL, a Solubility ([1]; mineral oil, oil or lipid) of less than 75 mg/mL and a Solubility ([1]; oil or lipid) of less than 75 mg/mL. The Solubility ([1]; propylene glycol, organic solvent or mixture) was less than 75 mg/mL, the “chemical degradation or crystallization” value ([2]; Example 17 oil after storage for 8 days or emulsion after 24 hr) was “No chemical degradation based on HPLC analysis or crystallization based on microscopic examination was detected” and the “average particle size of emulsion” value ([2]; Example 17 oil solution (Miglyol 812/propylene carbonate/Cremophor EL, 115 mg/g) plus equal volume water) was “less than 10 microns”. The “chemical degradation or crystallization” value ([2]; Example 18 oil after storage for 8 days or emulsion after 24 hr) was “No chemical degradation based on HPLC analysis or crystallization based on microscopic examination was detected”, the “average particle size of emulsion” value ([2]; Example 18 oil solution (olive oil/Cremophor EL, 13 mg/g) plus equal volume water) was “less than 10 microns” and the Cmax ([3]; 100 mg/kg, crystalline ethanolate, Miglyol/Cremophor/0.5% HPMCAS 40/10/50, 100 mg/kg) was 1600 ng/mL. The AUC(0-t) ([3]; 100 mg/kg, crystalline ethanolate, Miglyol/Cremophor/0.5% HPMCAS 40/10/50, 100 mg/kg, Tlast = 24 hr) was 15000 ng·h/mL, the AUC(0-t) ([3]; 100 mg/kg, crystalline ethanolate, Miglyol/Cremophor/water 40/10/50, 100 mg/kg, Tlast = 24 hr) was 23000 ng·h/mL and the Cmax ([3]; 100 mg/kg, crystalline ethanolate, Miglyol/Cremophor/water 40/10/50, 100 mg/kg, conc. in oil 100 mg/mL) was 1900 ng/mL. For the same molecule, the Cmax ([3]; 100 mg/kg, crystalline ethanolate, Olive oil/Cremophor 80/20, 100 mg/kg) was 3600 ng/mL, the AUC(0-t) ([3]; 100 mg/kg, crystalline ethanolate, Olive oil/Cremophor 80/20, 100 mg/kg, Tlast = 24 hr) was 45000 ng·h/mL and the AUC(0-t) ([3]; 100 mg/kg, crystalline ethanolate, Olive oil/Cremophor/water 40/10/50, 100 mg/kg, Tlast = 9 hr) was 33000 ng·h/mL. The Cmax ([3]; 100 mg/kg, crystalline ethanolate, Olive oil/Cremophor/water 40/10/50, 100 mg/kg, conc. in oil 20 mg/mL) was 6200 ng/mL, the Cmax ([3]; 300 mg/kg, amorphous anhydrous, Olive oil) was 7300 ng/mL and the AUC(0-t) ([3]; 300 mg/kg, amorphous anhydrous, Olive oil, Tlast = 24 hr) was 50000 ng·h/mL. For the same molecule, the Cmax ([3]; 375 mg/kg, crystalline ethanolate, Olive oil/caprylic acid/Cremophor/water 10/30/10/50, 375 mg/kg) was 4100 ng/mL, the AUC(0-t) ([3]; 375 mg/kg, crystalline ethanolate, Olive oil/caprylic acid/Cremophor/water 10/30/10/50, 375 mg/kg, Tlast = 9 hr) was 21000 ng·h/mL and the Cmax ([3]; 500 mg/kg, crystalline ethanolate, Miglyol) was 2100 ng/mL. It also gave an AUC(0-t) ([3]; 500 mg/kg, crystalline ethanolate, Miglyol, Tlast = 24 hr) of 27000 ng·h/mL, an AUC(0-t) ([3]; 500 mg/kg, crystalline ethanolate, Miglyol/Cremophor/water 40/10/50, 500 mg/kg, Tlast = 9 hr) of 18000 ng·h/mL and a Cmax ([3]; 500 mg/kg, crystalline ethanolate, Miglyol/Cremophor/water 40/10/50, 500 mg/kg, conc. in oil 100 mg/mL) of 4600 ng/mL. For the same molecule, the Cmax ([3]; 625 mg/kg, crystalline ethanolate, Olive oil/caprylic acid/triacetin/Cremophor/water 10/15/15/10/50, 625 mg/kg) was 4800 ng/mL, the AUC(0-t) ([3]; 625 mg/kg, crystalline ethanolate, Olive oil/caprylic acid/triacetin/Cremophor/water 10/15/15/10/50, 625 mg/kg, Tlast = 9 hr) was 26000 ng·h/mL and the Solubility ([4]; ambient temperature, vehicle Water) was less than 0.00004 mgA/ml. The Solubility ([4]; Miglyol 812/EtOH/Cremophor EL (76/4/20)) was 89 mgA/ml, the Solubility ([4]; Miglyol 812/Ethyl lactate/Cremophor EL 30/50/20) was 256 mgA/ml and the Solubility ([4]; Miglyol 812/Ethyl lactate/Cremophor EL 40/40/20) was 221 mgA/ml. The Solubility ([4]; Miglyol 812/Ethyl lactate/Cremophor EL 50/30/20) was 196 mgA/ml, the Solubility ([4]; Miglyol 812/Ethyl lactate/Cremophor EL 60/20/20) was 143 mgA/ml and the Solubility ([4]; Miglyol 812/Ethyl lactate/Cremophor EL 65/15/20) was 120 mgA/ml. For the same molecule, the Solubility ([4]; Miglyol 812/Ethyl lactate/Cremophor EL 70/10/20) was 99 mgA/ml, the Solubility ([4]; Miglyol 812/Ethyl lactate/Cremophor EL 72/8/20) was 94 mgA/ml and the Solubility ([4]; Miglyol 812/Ethyl lactate/Labrasol (72/8/20)) was 98 mgA/ml. The Solubility ([4]; Miglyol 812/Ethyl lactate/Tagat TO (72/8/20)) was 87 mgA/ml, the Solubility ([4]; Miglyol 812/Peppermint Oil/Cremophor EL (72/8/20)) was 72 mgA/ml and the Solubility ([4]; Miglyol 812/Propylene carbonate/Cremophor EL 30/50/20) was 228 mgA/ml. It also gave a Solubility ([4]; Miglyol 812/Propylene carbonate/Cremophor EL 40/40/20) of 209 mgA/ml, a Solubility ([4]; Miglyol 812/Propylene carbonate/Cremophor EL 55/25/20) of 158 mgA/ml and a Solubility ([4]; Miglyol 812/Propylene carbonate/Cremophor EL 72/8/20) of 108 mgA/ml. For the same molecule, the Solubility ([4]; Miglyol 812/Propylene carbonate/Labrasol (72/8/20)) was 116 mgA/ml, the Solubility ([4]; Miglyol 812/Propylene carbonate/Tagat TO (72/8/20)) was 111 mgA/ml and the Solubility ([4]; Miglyol 812/Triacetin/Cremophor EL 30/50/20) was 198 mgA/ml. It also gave a Solubility ([4]; Miglyol 812/Triacetin/Cremophor EL 40/40/20) of 183 mgA/ml, a Solubility ([4]; Miglyol 812/Triacetin/Cremophor EL 50/30/20) of 158 mgA/ml and a Solubility ([4]; Miglyol 812/Triacetin/Cremophor EL 60/20/20) of 133 mgA/ml. The Solubility ([4]; Miglyol 812/Triacetin/Cremophor EL 65/15/20) was 111 mgA/ml, the Solubility ([4]; Miglyol 812/Triacetin/Cremophor EL 72/8/20) was 94 mgA/ml and the Solubility ([4]; vehicle Capmul MCM) was 41 mgA/ml. The Solubility ([4]; vehicle Cremophor EL) was 20 mgA/ml, the Solubility ([4]; vehicle Dimethylisosorbide) was 439 mgA/ml and the Solubility ([4]; vehicle Ethyl lactate) was 400 mgA/ml. The Solubility ([4]; vehicle Glycofurol) was 99 mgA/ml, the Solubility ([4]; vehicle Labrafil M 1944) was 26 mgA/ml and the Solubility ([4]; vehicle Labrafil M 2125) was 27 mgA/ml. The Solubility ([4]; vehicle Labrasol) was 41 mgA/ml, the Solubility ([4]; vehicle Lauroglycol FCC) was 70 mgA/ml and the Solubility ([4]; vehicle Maisine 35-1) was 9 mgA/ml. For the same molecule, the Solubility ([4]; vehicle Miglyol 812) was 65 mgA/ml, the Solubility ([4]; vehicle Miglyol 812/Capmul MCM (80/20)) was 74 mgA/ml and the Solubility ([4]; vehicle Miglyol 812/Capmul MCM/Polysorbate 80 (20/60/20)) was 63 mgA/ml. The Solubility ([4]; vehicle Miglyol 812/Capmul MCM/Polysorbate 80 (40/40/20)) was 58 mgA/ml, the Solubility ([4]; vehicle Miglyol 812/Cremophor EL 80/20) was 68 mgA/ml and the Solubility ([4]; vehicle Miglyol 812/Labrafil M 1944 (80/20)) was 59 mgA/ml. For the same molecule, the Solubility ([4]; vehicle Miglyol 812/Labrafil M 2125 (80/20)) was 57 mgA/ml, the Solubility ([4]; vehicle Miglyol 812/Labrasol (80/20)) was 69 mgA/ml and the Solubility ([4]; vehicle Miglyol 812/Peppermint oil (80/20)) was 93 mgA/ml. It also gave a Solubility ([4]; vehicle Miglyol 812/Peppermint oil (90/10)) of 79 mgA/ml, a Solubility ([4]; vehicle Miglyol 812/Tagat TO (80/20)) of 58 mgA/ml and a Solubility ([4]; vehicle Miglyol 812/propylene carbonate/Cremophor EL (60/20/20)) of 146 mgA/ml. For the same molecule, the Solubility ([4]; vehicle Miglyol 812/triacetin (90/10), not completely miscible) was 106 mgA/ml, the Solubility ([4]; vehicle N-methyl-2-pyrrolidone) was 813 mgA/ml and the Solubility ([4]; vehicle Oleic acid) was 8.5 mgA/ml. For the same molecule, the Solubility ([4]; vehicle Olive oil) was 17 mgA/ml, the Solubility ([4]; vehicle Olive oil/Capmul MCM (80/20)) was 23 mgA/ml and the Solubility ([4]; vehicle Olive oil/Peppermint oil (90/10)) was 25 mgA/ml. For the same molecule, the Solubility ([4]; vehicle Peceol) was 10 mgA/ml, the Solubility ([4]; vehicle Plurol Oleique CC 497) was 17 mgA/ml and the Solubility ([4]; vehicle Pluronic L-44) was 36 mgA/ml. It also gave a Solubility ([4]; vehicle Polysorbate 80 (Tween 80)) of 23 mgA/ml, a Solubility ([4]; vehicle Propylene carbonate) of 227 mgA/ml and a Solubility ([4]; vehicle Tagat TO (Polyoxyethylene glycerol trioleate)) of 32 mgA/ml. For the same molecule, the Solubility ([4]; vehicle Transcutol P) was 174 mgA/ml, the Solubility ([4]; vehicle Triacetin) was 235 mgA/ml and the Solubility ([4]; vehicle Triethyl citrate) was 240 mgA/ml. For the same molecule, the Solubility ([4]; vehicle peppermint oil) was 266 mgA/ml.
